In ChEMBL document CHEMBL1201862, “PubChem BioAssay data set” (2004):
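Step 1: Grow cells in 96-well plates. Step 2: Expose to compound for 48 hours at 5 concentrations. Step 3: Interpolate endpoints linearly; if unreached, use highest concentration. GI50: concentration for 50% inhibition of growth.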 Active and inactive are the calls of the source. Cut-off read from the data, not from the text of the source: active = GI50 up to about 1.1 µM and inactive = higher.

Tests used:
Test in all cases: DTP human tumour cell line panel, 48 h
NCI/ADR-RES = test system: NCI/ADR-RES
DMS-114 = test system: DMS-114
EKVX = test system: EKVX
ACHN = test system: ACHN
HL-60 = test system: HL-60
DU-145 = test system: DU-145
HCT-15 = test system: HCT-15
HOP-62 = test system: HOP-62
NCI-H522 = test system: NCI-H522
OVCAR-3 = test system: OVCAR-3
HT-29 = test system: HT-29
SF-295 = test system: SF-295
RPMI-8226 = test system: RPMI-8226
XF498 = test system: XF498
SR = test system: SR
T47D = test system: T47D
HOP-92 = test system: HOP-92
M19-MEL = test system: M19-MEL
PC-3 = test system: PC-3
NCI-H226 = test system: NCI-H226
OVCAR-5 = test system: OVCAR-5
RXF 393 = test system: RXF 393
Malme-3M = test system: Malme-3M
MOLT-4 = test system: MOLT-4
SNB-19 = test system: SNB-19
KM-20L2 = test system: KM-20L2
KM12 = test system: KM12
OVCAR-4 = test system: OVCAR-4
HCT-116 = test system: HCT-116
NCI-H23 = test system: NCI-H23
K562 = test system: K562
DLD-1 = test system: DLD-1
BT-549 = test system: BT-549
Hs-578T = test system: Hs-578T
CCRF-CEM = test system: CCRF-CEM
A549 = test system: A549
SK-MEL-28 = test system: SK-MEL-28
HOP-18 = test system: HOP-18
LXFL 529 = test system: LXFL 529
LOX IMVI = test system: LOX IMVI
SNB-78 = test system: SNB-78
SN12C = test system: SN12C
UACC-257 = test system: UACC-257
SK-MEL-5 = test system: SK-MEL-5
786-0 = test system: 786-0
UACC-62 = test system: UACC-62
SK-MEL-2 = test system: SK-MEL-2
M14 = test system: M14
SNB-75 = test system: SNB-75
CAKI-1 = test system: CAKI-1
U-251 = test system: U-251
IGROV-1 = test system: IGROV-1
COLO 205 = test system: COLO 205
SF-268 = test system: SF-268
SF-539 = test system: SF-539
OVCAR-8 = test system: OVCAR-8
UO-31 = test system: UO-31
SW-620 = test system: SW-620
TK-10 = test system: TK-10
NCI-H460 = test system: NCI-H460
DMS-273 = test system: DMS-273
SK-OV-3 = test system: SK-OV-3
HCC 2998 = test system: HCC 2998
A498 = test system: A498

Measured: GI50

CCc1ccc(NCc2cc(OC)c(OC)c(OC)c2)cc1
0.164 µM: HCT-15
active: NCI/ADR-RES 0.0611 µM | DMS-114 0.457 µM | HL-60 0.056 µM | DU-145 0.716 µM | HOP-62 0.532 µM | NCI-H522 0.186 µM | OVCAR-3 0.211 µM | HT-29 0.176 µM | SF-295 0.197 µM | RPMI-8226 0.367 µM | XF498 0.933 µM | SR < 0.0282 µM | T47D 0.302 µM | M19-MEL 0.413 µM | PC-3 0.305 µM | RXF 393 0.211 µM | Malme-3M 0.232 µM | MOLT-4 0.29 µM | SNB-19 0.522 µM | KM-20L2 0.267 µM | KM12 0.0738 µM | HCT-116 0.0998 µM | NCI-H23 0.611 µM | K562 0.0845 µM | DLD-1 0.492 µM | BT-549 < 0.01 µM | Hs-578T 0.261 µM | CCRF-CEM 0.284 µM
inactive: EKVX 4.2 µM | ACHN 2.24 µM | HOP-92 1.24 µM | NCI-H226 3.3 µM | OVCAR-5 3.02 µM | OVCAR-4 18.2 µM

Cc1cc(O)nc(NNC(C#N)c2c(O)ccc3ccccc23)n1 (configuration not stated)
active: HL-60 0.966 µM
inactive: DMS-114 2.87 µM | A549 2.9 µM | SK-MEL-28 5.18 µM | HOP-18 4.49 µM | LXFL 529 8.79 µM | LOX IMVI 4.08 µM | ACHN 1.8 µM | SNB-78 19.3 µM | SN12C 3.18 µM | UACC-257 3.64 µM | SK-MEL-5 2.99 µM | 786-0 3.52 µM | HOP-62 6.5 µM | NCI-H522 8.89 µM | OVCAR-3 1.78 µM | HT-29 17.3 µM | SF-295 4.74 µM | RPMI-8226 3.72 µM | UACC-62 2.87 µM | SK-MEL-2 12.2 µM | SR 2.7 µM | M14 2.51 µM | HOP-92 19.1 µM | SNB-75 15 µM | M19-MEL 4.68 µM | CAKI-1 3.18 µM | NCI-H226 4.14 µM | U-251 2.91 µM | IGROV-1 3.4 µM | OVCAR-5 16.7 µM | COLO 205 22.4 µM | RXF 393 10.4 µM | SF-268 2.28 µM | Malme-3M 7.55 µM | SF-539 3.85 µM | OVCAR-8 3.1 µM | MOLT-4 2.34 µM | KM-20L2 24.8 µM | KM12 4.29 µM | OVCAR-4 3.32 µM | UO-31 1.73 µM | HCT-116 2.43 µM | SW-620 4.56 µM | NCI-H23 3.56 µM | K562 3.68 µM | DLD-1 3.42 µM | CCRF-CEM 1.73 µM | TK-10 9.06 µM | NCI-H460 2.89 µM | DMS-273 3.87 µM | SK-OV-3 7.08 µM
1.82 µM: HCT-15

N=C(N)/N=C(/C=C/c1ccccc1)CC1OC(=O)c2ccccc21 (configuration not stated)
> 100 µM: HCT-15
inactive: DMS-114 > 100 µM | A549 > 100 µM | EKVX > 100 µM | LXFL 529 > 100 µM | LOX IMVI > 100 µM | ACHN > 100 µM | SN12C > 100 µM | HL-60 > 100 µM | UACC-257 > 100 µM | SK-MEL-5 > 100 µM | 786-0 > 100 µM | HOP-62 > 100 µM | NCI-H522 > 100 µM | HT-29 > 100 µM | SF-295 > 10 µM | RPMI-8226 > 100 µM | UACC-62 42 µM | XF498 > 100 µM | SK-MEL-2 > 100 µM | SR > 100 µM | M14 > 100 µM | SNB-75 > 100 µM | M19-MEL > 100 µM | CAKI-1 > 100 µM | NCI-H226 > 100 µM | U-251 > 100 µM | IGROV-1 > 100 µM | COLO 205 > 100 µM | HCC 2998 > 100 µM | RXF 393 > 100 µM | SF-268 61.1 µM | Malme-3M > 100 µM | SF-539 > 100 µM | OVCAR-8 > 100 µM | MOLT-4 > 100 µM | A498 > 100 µM | SNB-19 > 100 µM | KM-20L2 > 100 µM | KM12 > 100 µM | OVCAR-4 > 100 µM | UO-31 > 100 µM | HCT-116 > 100 µM | SW-620 > 100 µM | K562 > 100 µM | DLD-1 > 100 µM | CCRF-CEM 86.9 µM | NCI-H460 > 100 µM | DMS-273 > 100 µM
